Each compound was assayed on Plasmopara viticola (assay: whole plant or invertebrate). Settings: foliar, read-out: disease control.
Format: in vivo

| Compound | pest or weed control at 200 ppm |
| --- | --- |
| COC(=O)C(OC(=O)c1cc2c(cc1Cl)COB2O)c1ccccc1 (stereo not shown) [Compound 223] | ≥ 80% |
| O=C(NCc1ccccc1)c1ccc2c(c1)B(O)OC2 [Compound 261] | ≥ 80% |
| COc1ccc(CNC(=O)c2ccc3c(c2)B(O)OC3)cc1 [Compound 271] | ≥ 80% |
| Cc1csc(NC(=O)c2ccc3c(c2)B(O)OC3)n1 [Compound 298] | ≥ 80% |
| O=C(OC(CF)CF)c1ccc2c(c1)B(O)OC2 [Compound 311] | ≥ 80% |
| CCCCSCCOC(=O)c1ccc2c(c1)B(O)OC2 [Compound 324] | ≥ 80% |
| C#CC(CC)OC(=O)c1ccc2c(c1)B(O)OC2 (stereo not shown) [Compound 327] | ≥ 80% |
| O=C(OCCCF)c1ccc2c(c1)B(O)OC2 [Compound 330] | ≥ 80% |
| O=C(OCC1CCCO1)c1ccc2c(c1)B(O)OC2 (stereo not shown) [Compound 337] | ≥ 80% |
| C[Si](C)(C)/C=C/COC(=O)c1ccc2c(c1)B(O)OC2 [Compound 342] | ≥ 80% |
| O=C(OC1CCOCC1)c1ccc2c(c1)B(O)OC2 [Compound 366] | ≥ 80% |
| O=C(OCCCF)c1cc2c(cc1F)COB2O [Compound 390] | ≥ 80% |
| CC(F)COC(=O)c1cc2c(cc1F)COB2O (stereo not shown) [Compound 396] | ≥ 80% |
| O=C(OCc1ccco1)c1cc2c(cc1F)COB2O [Compound 398] | ≥ 80% |
| O=C(OCCF)c1cc2c(cc1F)COB2O [Compound 423] | ≥ 80% |

What follows are compounds tested on Pythium ultimum (assay: Pythium ultimum / liquid culture (seedling damping off)). Settings: Globisporangium ultimum; 200 ppm; potato dextrose broth, 24° C., 2-3 days after application; read-out: disease control (inhibition of growth determined photometrically).
Format: cell-based

| Compound | inhibition at 200 ppm |
| --- | --- |
| O=C(NCc1ccccc1)c1cc2c(cc1F)COB2O [Compound 104] | ≥ 80% |
| CC(=O)c1sc(NC(=O)c2cc3c(cc2Cl)COB3O)nc1C [Compound 158] | ≥ 80% |
| O=C(OC(CF)CF)c1cc2c(cc1Cl)COB2O [Compound 189] | ≥ 80% |
| CC(F)COC(=O)c1cc2c(cc1Cl)COB2O (stereo not shown) [Compound 209] | ≥ 80% |
| COC(=O)C(OC(=O)c1cc2c(cc1Cl)COB2O)c1ccccc1 (stereo not shown) [Compound 223] | ≥ 80% |
| O=C(NCc1ccccc1)c1ccc2c(c1)B(O)OC2 [Compound 261] | ≥ 80% |
| COc1ccc(CNC(=O)c2ccc3c(c2)B(O)OC3)cc1 [Compound 271] | ≥ 80% |
| Cc1csc(NC(=O)c2ccc3c(c2)B(O)OC3)n1 [Compound 298] | ≥ 80% |
| O=C(OC(CF)CF)c1ccc2c(c1)B(O)OC2 [Compound 311] | ≥ 80% |
| CCCCSCCOC(=O)c1ccc2c(c1)B(O)OC2 [Compound 324] | ≥ 80% |
| C#CC(CC)OC(=O)c1ccc2c(c1)B(O)OC2 (stereo not shown) [Compound 327] | ≥ 80% |
| O=C(OCCCF)c1ccc2c(c1)B(O)OC2 [Compound 330] | ≥ 80% |
| O=C(OCC1CCCO1)c1ccc2c(c1)B(O)OC2 (stereo not shown) [Compound 337] | ≥ 80% |
| C[Si](C)(C)/C=C/COC(=O)c1ccc2c(c1)B(O)OC2 [Compound 342] | ≥ 80% |
| O=C(OC1CCOCC1)c1ccc2c(c1)B(O)OC2 [Compound 366] | ≥ 80% |
| O=C(OCCCF)c1cc2c(cc1F)COB2O [Compound 390] | ≥ 80% |
| CC(F)COC(=O)c1cc2c(cc1F)COB2O (stereo not shown) [Compound 396] | ≥ 80% |
| O=C(OCc1ccco1)c1cc2c(cc1F)COB2O [Compound 398] | ≥ 80% |
| O=C(OCCF)c1cc2c(cc1F)COB2O [Compound 423] | ≥ 80% |

The compounds below were run on Glomerella lagenarium (Colletotrichum lagenarium) (assay: Glomerella lagenarium (Colletotrichum lagenarium) / liquid culture (anthracnose)). Settings: Colletotrichum orbiculare, PDB potato dextrose broth, 24° C., 3-4 days after application, read-out: disease control (inhibition of growth measured photometrically).
Format: cell-based
Description: (§1) 11. Glomerella lagenarium (Colletotrichum lagenarium)/Liquid Culture (Anthracnose): Conidia of the fungus from cryogenic storage were directly mixed into nutrient broth (PDB potato dextrose broth). After placing a DMSO solution of test compound into a 96-well microtiter plate at an application rate of 200 ppm, the nutrient broth containing the fungal spores was added. The test plates were incubated at 24° C. and the inhibition of growth was measured photometrically 3-4 days after application.

| Compound | inhibition at 200 ppm |
| --- | --- |
| CC(=O)c1sc(NC(=O)c2cc3c(cc2Cl)COB3O)nc1C [Compound 158] | ≥ 80% |
| O=C(OC(CF)CF)c1cc2c(cc1Cl)COB2O [Compound 189] | ≥ 80% |
| CC(F)COC(=O)c1cc2c(cc1Cl)COB2O (stereo not shown) [Compound 209] | ≥ 80% |
| COC(=O)C(OC(=O)c1cc2c(cc1Cl)COB2O)c1ccccc1 (stereo not shown) [Compound 223] | ≥ 80% |
| C#CC(CC)OC(=O)c1ccc2c(c1)B(O)OC2 (stereo not shown) [Compound 327] | ≥ 80% |
| O=C(OCCCF)c1cc2c(cc1F)COB2O [Compound 390] | ≥ 80% |

The compounds below were run on Mycosphaerella arachidis (Cercospora arachidicola) (assay: Mycosphaerella arachidis (Cercospora arachidicola) / liquid culture (early leaf spot)). Settings: PDB potato dextrose broth, 24° C., 4-5 days after application, read-out: disease control (inhibition of growth determined photometrically).
Format: cell-based
Description: as §1, with “12. Mycosphaerella arachidis (Cercospora arachidicola)/Liquid” for “11. Glomerella lagenarium (Colletotrichum lagenarium)/Liquid”, “(Early Leaf Spot):” for “(Anthracnose):”, “determined” for “measured”, “4-5” for “3-4”

| Compound | inhibition at 200 ppm |
| --- | --- |
| O=C(NCc1ccccc1)c1cc2c(cc1F)COB2O [Compound 104] | ≥ 80% |
| O=C(NCc1ccccc1)c1ccc2c(c1)B(O)OC2 [Compound 261] | ≥ 80% |
| COc1ccc(CNC(=O)c2ccc3c(c2)B(O)OC3)cc1 [Compound 271] | ≥ 80% |
| Cc1csc(NC(=O)c2ccc3c(c2)B(O)OC3)n1 [Compound 298] | ≥ 80% |
| O=C(OC(CF)CF)c1ccc2c(c1)B(O)OC2 [Compound 311] | ≥ 80% |
| CCCCSCCOC(=O)c1ccc2c(c1)B(O)OC2 [Compound 324] | ≥ 80% |
| O=C(OCCCF)c1ccc2c(c1)B(O)OC2 [Compound 330] | ≥ 80% |
| O=C(OCC1CCCO1)c1ccc2c(c1)B(O)OC2 (stereo not shown) [Compound 337] | ≥ 80% |
| C[Si](C)(C)/C=C/COC(=O)c1ccc2c(c1)B(O)OC2 [Compound 342] | ≥ 80% |
| O=C(OC1CCOCC1)c1ccc2c(c1)B(O)OC2 [Compound 366] | ≥ 80% |
| CC(F)COC(=O)c1cc2c(cc1F)COB2O (stereo not shown) [Compound 396] | ≥ 80% |
| O=C(OCc1ccco1)c1cc2c(cc1F)COB2O [Compound 398] | ≥ 80% |
| O=C(OCCF)c1cc2c(cc1F)COB2O [Compound 423] | ≥ 80% |

The compounds below were run on Mycosphaerella graminicola (Septoria tritici) (assay: Mycosphaerella graminicola (Septoria tritici) / liquid culture (Septoria blotch)). Settings: Zymoseptoria tritici, PDB potato dextrose broth, 24° C., 4-5 days after application, read-out: disease control (inhibition of growth determined photometrically).
Format: cell-based
Description: as §1, with “13. Mycosphaerella graminicola (Septoria tritici)/Liquid” for “11. Glomerella lagenarium (Colletotrichum lagenarium)/Liquid”, “(Septoria Blotch):” for “(Anthracnose):”, “determined” for “measured”, “4-5” for “3-4”

| Compound | inhibition at 200 ppm |
| --- | --- |
| CCCCSCCOC(=O)c1ccc2c(c1)B(O)OC2 [Compound 324] | ≥ 80% |
| C[Si](C)(C)/C=C/COC(=O)c1ccc2c(c1)B(O)OC2 [Compound 342] | ≥ 80% |
| O=C(OCCF)c1cc2c(cc1F)COB2O [Compound 423] | ≥ 80% |

What follows are compounds tested on Gaeumannomyces graminis (assay: Gaeumannomyces graminis / liquid culture (take-all of cereals)). Settings: PDB potato dextrose broth, 24° C., 4-5 days after application, read-out: disease control (inhibition of growth determined photometrically).
Format: cell-based
Description: 14. Gaeumannomyces graminis/Liquid Culture (Take-all of Cereals): Mycelial fragments of the fungus from cryogenic storage were directly mixed into nutrient broth (PDB potato dextrose broth). After placing a DMSO solution of test compound into a 96-well microtiter plate at an application rate of 200 ppm, the nutrient broth […], containing the fungal spores is added. The test plates were incubated at 24° C. and the inhibition of growth was determined photometrically 4-5 days after application.

| Compound | inhibition at 200 ppm |
| --- | --- |
| O=C(OC(CF)CF)c1cc2c(cc1Cl)COB2O [Compound 189] | ≥ 80% |
| CC(F)COC(=O)c1cc2c(cc1Cl)COB2O (stereo not shown) [Compound 209] | ≥ 80% |
| CCCCSCCOC(=O)c1ccc2c(c1)B(O)OC2 [Compound 324] | ≥ 80% |
| C#CC(CC)OC(=O)c1ccc2c(c1)B(O)OC2 (stereo not shown) [Compound 327] | ≥ 80% |
| O=C(OCCCF)c1ccc2c(c1)B(O)OC2 [Compound 330] | ≥ 80% |
| C[Si](C)(C)/C=C/COC(=O)c1ccc2c(c1)B(O)OC2 [Compound 342] | ≥ 80% |
| O=C(OCCCF)c1cc2c(cc1F)COB2O [Compound 390] | ≥ 80% |
| O=C(OCCF)c1cc2c(cc1F)COB2O [Compound 423] | ≥ 80% |

The compounds below were run on Monographella nivalis (Microdochium nivale) (assay: Monographella nivalis (Microdochium nivale) / liquid culture (foot rot cereals)). Settings: PDB potato dextrose broth, 24° C., 4-5 days after application, read-out: disease control (inhibition of growth determined photometrically).
Format: cell-based

| Compound | inhibition at 200 ppm |
| --- | --- |
| O=C(OC(CF)CF)c1cc2c(cc1Cl)COB2O [Compound 189] | ≥ 80% |
| CC(F)COC(=O)c1cc2c(cc1Cl)COB2O (stereo not shown) [Compound 209] | ≥ 80% |
| COC(=O)C(OC(=O)c1cc2c(cc1Cl)COB2O)c1ccccc1 (stereo not shown) [Compound 223] | ≥ 80% |
| O=C(OC(CF)CF)c1ccc2c(c1)B(O)OC2 [Compound 311] | ≥ 80% |
| CCCCSCCOC(=O)c1ccc2c(c1)B(O)OC2 [Compound 324] | ≥ 80% |
| O=C(OCCCF)c1ccc2c(c1)B(O)OC2 [Compound 330] | ≥ 80% |
| O=C(OCC1CCCO1)c1ccc2c(c1)B(O)OC2 (stereo not shown) [Compound 337] | ≥ 80% |
| C[Si](C)(C)/C=C/COC(=O)c1ccc2c(c1)B(O)OC2 [Compound 342] | ≥ 80% |
| O=C(OCCCF)c1cc2c(cc1F)COB2O [Compound 390] | ≥ 80% |
| CC(F)COC(=O)c1cc2c(cc1F)COB2O (stereo not shown) [Compound 396] | ≥ 80% |
| O=C(OCc1ccco1)c1cc2c(cc1F)COB2O [Compound 398] | ≥ 80% |
| O=C(OCCF)c1cc2c(cc1F)COB2O [Compound 423] | ≥ 80% |

What follows are compounds tested on Thanatephorus cucumeris (Rhizoctonia solani) (assay: Thanatephorus cucumeris (Rhizoctonia solani) / liquid culture (foot rot, damping-off)). Settings: PDB potato dextrose broth, 24° C., 3-4 days after application, read-out: disease control (inhibition of growth determined photometrically).
Format: cell-based
Description: 17. Thanatephorus cucumeris (Rhizoctonia solani)/Liquid Culture (Foot Rot, Damping-Off): Mycelia fragments of a newly grown liquid culture of the fungus were directly mixed into nutrient broth (PDB potato dextrose broth). After placing a DMSO solution of the test compounds into a 96-well microtiter plate at an application rate of 200 ppm, the nutrient broth containing the fungal material was added. The test plates were incubated at 24° C. and the inhibition of growth was determined photometrically 3-4 days after application.

| Compound | inhibition at 200 ppm |
| --- | --- |
| CC(F)COC(=O)c1cc2c(cc1Cl)COB2O (stereo not shown) [Compound 209] | ≥ 80% |
| O=C(OC(CF)CF)c1ccc2c(c1)B(O)OC2 [Compound 311] | ≥ 80% |
| CCCCSCCOC(=O)c1ccc2c(c1)B(O)OC2 [Compound 324] | ≥ 80% |
| C#CC(CC)OC(=O)c1ccc2c(c1)B(O)OC2 (stereo not shown) [Compound 327] | ≥ 80% |
| O=C(OCCCF)c1ccc2c(c1)B(O)OC2 [Compound 330] | ≥ 80% |
| O=C(OCC1CCCO1)c1ccc2c(c1)B(O)OC2 (stereo not shown) [Compound 337] | ≥ 80% |
| C[Si](C)(C)/C=C/COC(=O)c1ccc2c(c1)B(O)OC2 [Compound 342] | ≥ 80% |
| O=C(OC1CCOCC1)c1ccc2c(c1)B(O)OC2 [Compound 366] | ≥ 80% |
| O=C(OCCCF)c1cc2c(cc1F)COB2O [Compound 390] | ≥ 80% |
| CC(F)COC(=O)c1cc2c(cc1F)COB2O (stereo not shown) [Compound 396] | ≥ 80% |
| O=C(OCc1ccco1)c1cc2c(cc1F)COB2O [Compound 398] | ≥ 80% |
| O=C(OCCF)c1cc2c(cc1F)COB2O [Compound 423] | ≥ 80% |
